The text below walks through data of patent US6649639B2, “Antipicornaviral compounds, compositions containing them, and methods for their use” (priority 1997, dated 2003).

Bounds are passed on as bounds.

The subject of series [1] is HRV serotype 16. Nature of the series: Antirhinoviral HI-HeLa Cell Culture Assay (XTT cell protection), HRV serotype 16. Type of series: cell-based, human rhinovirus. The conditions noted are these: HRV serotype 16, HI-HeLa cells. The method, then: (§1) In the Cell Protection Assay, the ability of compounds to protect cells against HRV infection was measured by the XTT dye reduction method. This method is described in Weislow, O. S., Kiser, R., Fine, D. L., Bader, J., Shoemaker, R. H., Boyd, M. R., J. Natl. Cancer Inst. 1989, 81, 577-586, the disclosure of which is incorporated herein by reference.
(§2) Infected or mock-infected cells were suspended at 8×10^5 cells per mL and incubated with appropriate concentrations of compounds of formula I. Two days later, XTT/PMS was added to test plates, and the amount of formazan produced was quantified spectrophotometrically at 450/650 nm. […] The therapeutic index (TI) was calculated by dividing the CC50 by the EC50.
(§3) All strains of human rhinovirus (HRV) for use in this assay were purchased from American Type Culture Collection (ATCC) except for HRV serotype-14, which was produced from the infectious cDNA clone constructed and supplied to Applicants by Dr. Robert Rueckert at the Institute for Molecular Virology, University of Wisconsin, Madison, Wis. HRV stocks were propagated, and viral assays were performed in HI-HeLa cells (ATCC). Cells were grown in Minimal Essential Medium, available from Life Technologies, with 10% fetal bovine serum. […]
Background: Tetrazolium assays rely on reduction of a dye to a coloured formazan, in cell work by metabolically active cells.

Series [2] concerns HRV serotype 2. In words: Antirhinoviral HI-HeLa Cell Culture Assay (XTT cell protection), HRV serotype 2. The conditions noted are these: HRV serotype 2, HI-HeLa cells. It counts as cell-based, human rhinovirus. The method, then:
as §1, §2
(§4) All strains of human rhinovirus (HRV) for use in this assay were purchased from American Type Culture Collection (ATCC) except for HRV serotype-14, which was produced from the infectious cDNA clone constructed and supplied to Applicants by Dr. Robert Rueckert at the Institute for Molecular Virology, University of Wisconsin, Madison, Wis. HRV stocks were propagated, and viral assays were performed in HI-HeLa cells (ATCC). Cells were grown in Minimal Essential Medium, available from Life Technologies, with 10% fetal bovine serum.
(§5) The compounds were tested against control compounds WIN 51711, WIN 52084, and WIN 54954, all obtained from Sterling-Winthrop Pharmaceuticals, and control compound Pirodavir, obtained from Janssen Pharmaceuticals. Antiviral data obtained for the test compounds are shown in Table 2 where all data are for HRV serotype-14 unless otherwise noted in parentheses.

The subject of series [3] is HI-HeLa cells. In words: Cytotoxicity (CC50) in mock-infected HI-HeLa cells, antirhinoviral assay. Type of series: cell-based.
The test system of series [4] is HRV serotype 39. Nature of the series: Antirhinoviral HI-HeLa Cell Culture Assay (XTT cell protection), HRV serotype 39. The conditions noted are these: HRV serotype 39, HI-HeLa cells. Type of series: cell-based, human rhinovirus. Here is the method: as §1, §2, §3
For series [5], the system named is HRV serotype-14. In words: Antirhinoviral HI-HeLa Cell Culture Assay (XTT cell protection), HRV-14. It counts as cell-based, human rhinovirus. The conditions noted are these: HRV serotype-14, HI-HeLa cells. Here is the method:
as §1, §2, §4, §5

Series [6] has as its system HRV serotype 10. In words: Antirhinoviral HI-HeLa Cell Culture Assay (XTT cell protection), HRV serotype 10. Type of series: cell-based, human rhinovirus. The conditions noted are these: HRV serotype 10, HI-HeLa cells. The method, then: as §1, §2, §4, §5
Series [7] deals with HRV serotype 1A. In words: Antirhinoviral HI-HeLa Cell Culture Assay (XTT cell protection), HRV serotype 1A. It counts as cell-based, human rhinovirus. The conditions noted are these: HI-HeLa cells. Here is the method:
as §1, §2, §4, §5

The term EC50 denotes the concentration needed to bring the measured effect to its halfway point. Read a low EC50 as higher potency in that assay. One may read the CC50 as the concentration at which the toxic effect on the cells reaches its halfway point. In the case of `CCOC(=O)/C=C/C(CCC(N)=O)NC(=O)C(CC(=O)C(NC(=O)SC1CCCC1)C(C)C)Cc1ccc(C)cc1` [Compound 11, Ethyl-3-(CyPentylSCO-L-ValΨ[COCH2]-L-(p-CH3)Phe-L-Gln)-E-Propenoate], the 50% effective concentration (EC50) in series [1] stood at 25 nM; in series [2], 120 nM; in series [4] it was 130 nM; in series [5] it was 6 nM; in series [6], 60 nM; in series [7], 160 nM. The CC50 in series [3] (line of HRV serotype 1A), in series [3] (line of HRV serotype 2), in series [3] (line of HRV serotype 10), in series [3] (line of HRV serotype 16), in series [3] (line of HRV serotype 39) and in series [3] (line of HRV serotype-14) was over 3000 nM throughout.
